# System: HepG2 cells
# Assay: LC-MS/MS targeted intracellular metabolomics
# Type: cell-based, human
# Conditions: 48 h
# In short: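 Metabolites extracted in-plate from HepG2 cells with 80% isopropanol and analysed by RP and HILIC LC-MS/MS in positive and negative mode. Data normalised to lyophilised untreated HepG2 reference samples and to each sample's median across 221 metabolites. Treated versus control compared by Welch t test on log-transformed data.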
# [1] = Suppl Fig 9, C3 (EC15 ATP), Bezafibrate lines = Plates 1-6 in order
# [2] = Suppl Fig 10, C3 (C2 for Aroclor)
smiles,measurement,setting,value
Cc1cccc(Nc2cc(Cl)nc(SCC(=O)O)n2)c1C [Wy-14643],2'-Deoxycytidine level vs controls,[1],0.75
same,5-Hydroxytryptophan level vs controls,[1],0.85
same,Carnitine level vs controls,[1],0.99
same,Ceramide (d18:1.C20:0) level vs controls,[1],0.66
same,Ceramide (d18:1.C24:1) level vs controls,[1],0.92
same,Ceramide (d18:1.C24:2) level vs controls,[1],0.71
same,Ceramide (d18:2.C24:1) level vs controls,[1],0.97
same,Choline plasmalogen (C36:4) level vs controls,[1],1.00
same,Choline plasmalogen (C36:5) level vs controls,[1],1.03
same,Creatine level vs controls,[1],0.85
same,Glycerol-3-phosphate level vs controls,[1],0.72
same,Hexanoylcarnitine level vs controls,[1],0.93
same,Ketoleucine level vs controls,[1],0.86
same,Lysophosphatidylcholine (C14:0) level vs controls,[1],1.51
same,Lysophosphatidylcholine (C16:0) level vs controls,[1],1.26
same,Lysophosphatidylcholine (C16:1) level vs controls,[1],1.06
same,Lysophosphatidylcholine (C20:4) level vs controls,[1],1.28
same,Lysophosphatidylcholine (C24:0) level vs controls,[1],1.50
same,Lysophosphatidylcholine (C24:1) level vs controls,[1],1.20
same,Lysophosphatidylethanolamine (C16:0) level vs controls,[1],1.18
same,Lysophosphatidylethanolamine (C18:0) level vs controls,[1],1.26
same,Lysophosphatidylethanolamine (C18:1) level vs controls,[1],1.12
same,N-Acetylaspartate level vs controls,[1],1.22
same,Pantothenic acid level vs controls,[1],0.74
same,Phosphatidylcholine (C32:0) level vs controls,[1],0.81
same,Phosphatidylcholine (C34:1) level vs controls,[1],0.91
same,Phosphatidylcholine (C34:3) level vs controls,[1],1.04
same,Phosphatidylcholine (C36:1) level vs controls,[1],0.96
same,Phosphatidylcholine (C36:2) level vs controls,[1],0.86
same,Phosphatidylcholine (C36:3) level vs controls,[1],0.93
same,Phosphatidylcholine (C36:4) level vs controls,[1],0.98
same,Phosphatidylcholine (C36:5) level vs controls,[1],0.92
same,Phosphatidylethanolamine (C36:3) level vs controls,[1],0.82
same,Phosphatidylethanolamine (C38:3) level vs controls,[1],0.92
same,Phosphatidylethanolamine (C38:5) level vs controls,[1],0.89
same,Phosphatidylethanolamine (C38:6) level vs controls,[1],0.96
same,Phosphatidylethanolamine (C40:7) level vs controls,[1],0.92
same,Phosphocholine level vs controls,[1],0.91
same,Propionylcarnitine level vs controls,[1],0.97
same,S-Adenosylhomocysteine level vs controls,[1],1.03
same,Sphingomyelin (d32:2) level vs controls,[1],0.79
same,Sphingomyelin (d33:1) level vs controls,[1],1.13
same,Sphingomyelin (d34:0) level vs controls,[1],1.04
same,Sphingomyelin (d35:1) level vs controls,[1],0.99
same,Sphingomyelin (d36:1) level vs controls,[1],0.90
same,Sphingomyelin (d36:2) level vs controls,[1],0.97
same,Sphingomyelin (d37:1) level vs controls,[1],0.81
same,Sphingomyelin (d38:1) level vs controls,[1],0.84
same,Sphingomyelin (d38:2) level vs controls,[1],0.74
same,Sphingomyelin (d39:1) level vs controls,[1],0.94
same,Sphingomyelin (d40:2) level vs controls,[1],0.81
same,Sphingomyelin (d41:2) level vs controls,[1],0.79
same,Sphingomyelin (d42:2) level vs controls,[1],0.79
same,Taurine level vs controls,[1],0.97
same,Triacylglycerol (C34:1.C18:3) level vs controls,[1],1.01
same,Triacylglycerol (C34:2.C18:0) level vs controls,[1],1.14
same,Triacylglycerol (C34:2.C18:1) level vs controls,[1],1.01
same,Triacylglycerol (C36:4.C16:0) level vs controls,[1],1.09
same,Triacylglycerol (C36:4.C18:0) level vs controls,[1],1.18
O=c1cc(-c2ccccc2)oc2ccc3ccccc3c12 [β-naphthoflavone],Carnitine level vs controls,[2],0.88
same,Ceramide (d16:1.C24:0) level vs controls,[2],1.20
same,Ceramide (d17:1.C24:0) level vs controls,[2],1.24
same,Ceramide (d18:1.C20:0) level vs controls,[2],0.73
same,Ceramide (d18:1.C22:1) level vs controls,[2],0.65
same,Ceramide (d18:1.C24:1) level vs controls,[2],0.64
same,Ceramide (d18:2.C16:0) level vs controls,[2],1.48
same,Ceramide (d18:2.C23:0) level vs controls,[2],1.56
same,Ceramide (d18:2.C24:0) level vs controls,[2],1.41
same,Ceramide (d18:2.C24:1) level vs controls,[2],1.23
same,Choline plasmalogen (C36:4) level vs controls,[2],0.82
same,Choline plasmalogen (C36:5) level vs controls,[2],0.84
same,Cysteinylglycine level vs controls,[2],3.16
same,Flavin adenine dinucleotide (FAD) level vs controls,[2],1.63
same,Glutathione (GSH) level vs controls,[2],2.59
same,Hexanoylcarnitine level vs controls,[2],1.02
same,Isopentenyl pyrophosphate (IPP) level vs controls,[2],2.43
same,Lysophosphatidylcholine (C14:0) level vs controls,[2],1.48
same,Lysophosphatidylcholine (C16:0) level vs controls,[2],2.15
same,Lysophosphatidylcholine (C20:0) level vs controls,[2],2.34
same,Lysophosphatidylcholine (C20:1) level vs controls,[2],2.23
same,Lysophosphatidylcholine (C20:4) level vs controls,[2],1.68
same,Lysophosphatidylcholine (C22:0) level vs controls,[2],1.99
same,Lysophosphatidylcholine (C24:0) level vs controls,[2],2.67
same,Lysophosphatidylcholine (C24:1) level vs controls,[2],2.34
same,Lysophosphatidylethanolamine (C16:0) level vs controls,[2],1.77
same,Lysophosphatidylethanolamine (C18:0) level vs controls,[2],2.25
same,N-Acetylglucosamine level vs controls,[2],0.79
same,N-Acetylserine level vs controls,[2],1.03
same,O-Acetylcarnitine level vs controls,[2],0.87
same,Pantothenic acid level vs controls,[2],0.96
same,Phosphatidylcholine (C32:0) level vs controls,[2],1.16
same,Phosphatidylcholine (C34:0) level vs controls,[2],1.39
same,Phosphatidylcholine (C34:2) level vs controls,[2],0.77
same,Phosphatidylcholine (C34:3) level vs controls,[2],0.60
same,Phosphatidylcholine (C36:0) level vs controls,[2],1.62
same,Phosphatidylcholine (C36:1) level vs controls,[2],1.21
same,Phosphatidylcholine (C36:2) level vs controls,[2],0.80
same,Phosphatidylcholine (C36:3) level vs controls,[2],0.87
same,Phosphatidylcholine (C36:4) level vs controls,[2],1.08
same,Phosphatidylcholine (C38:6) level vs controls,[2],1.09
same,Phosphatidylethanolamine (C32:0) level vs controls,[2],1.63
same,Phosphatidylethanolamine (C34:0) level vs controls,[2],1.79
same,Phosphatidylethanolamine (C34:1) level vs controls,[2],1.38
same,Phosphatidylethanolamine (C34:2) level vs controls,[2],0.93
same,Phosphatidylethanolamine (C36:0) level vs controls,[2],2.10
same,Phosphatidylethanolamine (C36:1) level vs controls,[2],1.81
same,Phosphatidylethanolamine (C36:3) level vs controls,[2],0.84
same,Phosphatidylethanolamine (C38:5) level vs controls,[2],0.93
same,Phosphatidylethanolamine (C40:7) level vs controls,[2],0.79
same,Proline level vs controls,[2],0.64
same,Propionylcarnitine level vs controls,[2],1.03
same,Sphingomyelin (d32:1) level vs controls,[2],0.84
same,Sphingomyelin (d35:1) level vs controls,[2],1.06
same,Sphingomyelin (d38:2) level vs controls,[2],0.94
same,Sphingomyelin (d40:2) level vs controls,[2],0.77
same,Sphingomyelin (d41:2) level vs controls,[2],0.85
same,Sphingomyelin (d42:2) level vs controls,[2],0.74
same,Triacylglycerol (C30:0.C18:1) level vs controls,[2],0.36
same,Triacylglycerol (C32:0.C16:1) level vs controls,[2],0.41
same,Triacylglycerol (C32:1.C16:1) level vs controls,[2],0.26
same,Triacylglycerol (C34:0.C18:1) level vs controls,[2],0.47
same,Triacylglycerol (C34:1.C16:0) level vs controls,[2],0.39
same,Triacylglycerol (C34:1.C18:1) level vs controls,[2],0.47
same,Triacylglycerol (C34:2.C18:0) level vs controls,[2],0.40
same,Triacylglycerol (C34:2.C18:1) level vs controls,[2],0.24
same,Triacylglycerol (C36:1.C18:0) level vs controls,[2],0.46
same,Triacylglycerol (C36:1.C18:1) level vs controls,[2],0.35
same,Triacylglycerol (C36:1.C18:2) level vs controls,[2],0.46
same,Triacylglycerol (C36:2.C18:1) level vs controls,[2],0.41
same,Triacylglycerol (C36:3.C18:1) level vs controls,[2],0.38
same,Tyrosine level vs controls,[2],1.14
same,myo-Inositol-2-phosphate level vs controls,[2],0.65
same,Sphingomyelin (d34:2) level vs controls,"Suppl Fig 10, C3 (C2 for Aroclor), first of two lines with this name",1.05
same,Sphingomyelin (d34:2) level vs controls,"Suppl Fig 10, C3 (C2 for Aroclor), second of two lines with this name",1.07

# Reference: paper PMC10693528, “A high-throughput metabolomics in vitro platform for the characterization of hepatotoxicity” (Cell Biology and Toxicology, 2023)
